Earlier results as cited in patent US20230405018A1, “FLUMAZENIL FORMULATIONS FOR SUBCUTANEOUS INJECTION AND METHODS OF TREATMENT USING GABA RECEPTOR MODULATORS” (Bexson Biomedical, Inc., priority 2020, published 2023).
Like-named read-outs stand apart in the source and are kept apart here.

Tests used:
[1] = tested on: benzodiazepine withdrawal symptoms
[2] = acidic USP flumazenil preparations (pH ~4)
[3] = reported

Compound	Systemic availability after first pass hepatic metabolism (in vivo)	Oral bioavailability (in vivo, po)	Half-life (rapid metabolism in the liver) [min]	Effect on withdrawal, craving and cessation ([1]; bolus administrations in conjunction with benzodiazepine tapering)	Effect on withdrawal symptoms ([1]; continuous 2 mg/24 h over 96 h by IV with oxazepam tapering)	Effect on withdrawal symptoms ([1]; ~1-2 mg bolus over several hours, high dose benzodiazepine patients abstinent at least three weeks)	Solubility / concentration of flumazenil in USP preparations [2] [mg/mL]	Solubility of SBE-β-CD [3] [mg/mL]
CCOC(=O)c1ncn2c1CN(C)C(=O)c1cc(F)ccc1-2 [flumazenil, ethyl 8-fluoro-5,6-dihydro-5-methyl-6-oxo-4H-imidazo[1,5-a][1,4] benzodiazepine-3-carboxylate]	less than 25%	extremely limited and poor	4 to 11	reduction of benzodiazepine withdrawal symptoms, reduced craving, and increased completion of cessation of benzodiazepines without relapse	drastically curtail withdrawal symptoms	reduce withdrawal symptoms	~0.1	–
sulfobutyl-ether-beta-cyclodextrin [SBE-β-CD]	–	–	–	–	–	–	–	600
